“And” between values parts separate entries of the source, which are not always exact repeats. Equal entries are not always repeated. Toxic doses and inconclusive results are not listed. Rule as the data show it: active = T/C of 150% or more; inactive = T/C below 125%. Square brackets hold non-standard residues; d marks the D form. Peptide text beside a SMILES is read from it. * marks the point of attachment. ξ: configuration not given here. Cbz = O=C(OCc1ccccc1)*; ξA = CC(N)C(=O)O
Test system: L1210 leukemia ip in BDF1 mice, survival T/C
Test: NCI In Vivo Anticancer Drug Screen. Data for tumor model L1210 Leukemia (intraperitoneal) in B6D2F1 (BDF1) mice
Conditions: endpoint: mean survival time, higher = longer survival
Procedure, shortened: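 Value reflects the ratio of survival in compound-treated mice to survival in vehicle-treated controls, with both groups carrying the same transplanted tumor.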

[1] = dose: 100.0 mg/kg/injection, schedule: Q04DX003 (ip), vehicle: saline with Tween-80
[2] = dose: 200.0 mg/kg/injection, schedule: Q04DX003 (ip), vehicle: saline with Tween-80
[3] = dose: 100.0 mg/kg/injection, schedule: Q01DX001 (ip), vehicle: saline
[4] = dose: 200.0 mg/kg/injection, schedule: Q01DX001 (ip), vehicle: saline
[5] = dose: 400.0 mg/kg/injection, schedule: Q01DX001 (ip), vehicle: saline

Measured: T/C

CNC(=O)Oc1ccc2ccccc2c1
inactive: dose: 100.0 mg/kg/injection, schedule: Q01DX009 (ip), vehicle: other 101 % of control | dose: 200.0 mg/kg/injection, schedule: Q01DX009 (ip), vehicle: other 104 % of control | dose: 400.0 mg/kg/injection, schedule: Q01DX009 (ip), vehicle: other 93 % of control

O=C(NNC(=S)Nc1ccccc1Cl)c1ccncc1
inactive: dose: 75.0 mg/kg/injection, schedule: Q01DX009 (ip), vehicle: Klucel (hydroxypropylcellulose) (HPC) 93 % of control | dose: 150.0 mg/kg/injection, schedule: Q01DX009 (ip), vehicle: Klucel (hydroxypropylcellulose) (HPC) 97 % of control | dose: 300.0 mg/kg/injection, schedule: Q01DX009 (ip), vehicle: Klucel (hydroxypropylcellulose) (HPC) 101 % of control

C=C(Cl)CSCCCS
inactive: dose: 100.0 mg/kg/injection, schedule: Q01DX009 (ip), vehicle: acetone 108 % of control | dose: 130.0 mg/kg/injection, schedule: Q01DX009 (ip), vehicle: saline 116 % of control | dose: 200.0 mg/kg/injection, schedule: Q01DX009 (ip), vehicle: acetone 123 % of control | dose: 200.0 mg/kg/injection, schedule: Q01DX009 (ip), vehicle: saline 120 % of control | dose: 300.0 mg/kg/injection, schedule: Q01DX009 (ip), vehicle: saline 120 % of control

COC(=O)c1ccccc1C(=O)O
inactive: [1] 101 % of control | [2] 93 % of control

CC1(C)CCC(C)(C)C(=O)C1=O
inactive: dose: 10.0 mg/kg/injection, schedule: Q01DX009 (ip), vehicle: Klucel (hydroxypropylcellulose) (HPC) 105 % of control | dose: 10.0 mg/kg/injection, schedule: Q04DX003 (ip), vehicle: Klucel (hydroxypropylcellulose) (HPC) 97 % of control | dose: 20.0 mg/kg/injection, schedule: Q01DX001 (ip), vehicle: Klucel (hydroxypropylcellulose) (HPC) 103 % of control | dose: 20.0 mg/kg/injection, schedule: Q01DX009 (ip), vehicle: Klucel (hydroxypropylcellulose) (HPC) 89 % of control | dose: 20.0 mg/kg/injection, schedule: Q04DX003 (ip), vehicle: Klucel (hydroxypropylcellulose) (HPC) 102 % of control | dose: 40.0 mg/kg/injection, schedule: Q01DX001 (ip), vehicle: Klucel (hydroxypropylcellulose) (HPC) 102 % of control | dose: 40.0 mg/kg/injection, schedule: Q01DX009 (ip), vehicle: Klucel (hydroxypropylcellulose) (HPC) 89 % of control | dose: 40.0 mg/kg/injection, schedule: Q04DX003 (ip), vehicle: Klucel (hydroxypropylcellulose) (HPC) 100 % of control

CCN(CC)CCOC(=O)c1ccccc1S(N)(=O)=O
inactive: [3] 104 % of control | [4] 101 % of control | [5] 98 % of control

CSCCC(O)C(=O)O (stereo not given)
inactive: [3] 101 % of control | [4] 95 % of control | [5] 101 % of control

CC(NC(=O)CNC(=O)OCc1ccccc1)C(N)=O (stereo not drawn) (Cbz-Gly-[ξA]-NH2)
inactive: [1] 102 % of control | [2] 101 % of control | dose: 400.0 mg/kg/injection, schedule: Q04DX003 (ip), vehicle: saline with Tween-80 101 % of control

NC(=O)N/N=C\c1ccc(O)cn1
inactive: dose: 100.0 mg/kg/injection, schedule: Q04DX003 (ip), vehicle: acetone 98 % of control | dose: 200.0 mg/kg/injection, schedule: Q04DX003 (ip), vehicle: acetone 93 % of control | dose: 400.0 mg/kg/injection, schedule: Q04DX003 (ip), vehicle: acetone 96 % of control

O=C1C=C(C23CC4CC(CC(C4)C2)C3)N2CCCc3cccc(c32)N1
inactive: dose: 100.0 mg/kg/injection, schedule: Q04DX002 (ip), vehicle: Klucel (hydroxypropylcellulose) (HPC) 97 % of control | dose: 200.0 mg/kg/injection, schedule: Q04DX002 (ip), vehicle: Klucel (hydroxypropylcellulose) (HPC) 105 % of control | dose: 400.0 mg/kg/injection, schedule: Q04DX002 (ip), vehicle: Klucel (hydroxypropylcellulose) (HPC) 97 % of control

Cc1ccc(-c2nc3ccccc3c(=O)o2)cc1
inactive: dose: 50.0 mg/kg/injection, schedule: Q01DX009 (ip), vehicle: gum acacia 93 % of control and 100 % of control | dose: 100.0 mg/kg/injection, schedule: Q01DX009 (ip), vehicle: gum acacia 93 % of control and 100 % of control | dose: 100.0 mg/kg/injection, schedule: Q04DX003 (ip), vehicle: gum acacia 106 % of control | dose: 200.0 mg/kg/injection, schedule: Q04DX003 (ip), vehicle: gum acacia 88 % of control

Reference: PubChem BioAssay AID248 (DTP/NCI, 2004)
